The values below are quoted from earlier work in patent US20220050096A1, “ANALYTE-SENSITIVE PROBES AND CONTACT LENS FOR DIAGNOSIS OF OCULAR PATHOLOGIES” (University Of Maryland, Baltimore, priority 2020, published 2022).

Read-outs that look alike come from different tables or passages of the source.

The conditions of this data set: cited from earlier work; for Kd: read-out: K (mM), binding constant.

As for `COc1cc(N2CCOCCOCCN(c3cc(OC)c(NC(=O)c4ccc(-c5c6cc(Cl)c(=O)cc-6oc6cc([O-])c(Cl)cc56)c(C(=O)[O-])c4)cc3OC)CCOCC2)c(OC)cc1NC(=O)c1ccc(-c2c3cc(Cl)c(=O)cc-3oc3cc([O-])c(Cl)cc23)c(C(=O)[O-])c1.C[N+](C)(C)C.C[N+](C)(C)C.C[N+](C)(C)C.C[N+](C)(C)C` [SG], the Kd was 6 to 10 mM. Further, under “cation-bound form (in parentheses)”, the “Lifetime (ns), cation-bound form” value is reported as 2.38 ns. Moreover, under “free form”, the “Lifetime (ns), free form” value is 3.34 ns. Besides, the Kd (listed as Na Green) was 6 mM. For the same compound, the Kd (listed as Sodium Green) is around 5 mM.
